Patent publication US7119182B1 (The Regents of the University of California, priority 1991, dated 2006)
Square brackets hold non-standard residues; d marks the D form. Ends that are not written are not given here. Peptide text beside a SMILES is read from it. * marks the point of attachment. 2Nal = N[C@@H](Cc1ccc2ccccc2c1)C(=O)O; 2Thi = N[C@@H](Cc1cccs1)C(=O)O; Cha = N[C@@H](CC1CCCCC1)C(=O)O; Phg = N[C@H](C(=O)O)c1ccccc1; Aib = CC(C)(N)C(=O)O; Piv = CC(C)(C)C(=O)*; X1 = O=C(c1ccccc1S)*; Mpa = O=C(O)CCS

The compounds below were run against T1, thrombin receptor (Homo sapiens, UniProt P25116) (assay: Platelet activation/aggregation assays in the presence of thrombin, antagonist peptides). Conditions: read-out: IC50 (50% inhibition of activation or aggregation).
T1 construct: In this assay, washed human platelets are prepared by the method of Baenzinger; endogenous in cells; host or cells: washed human platelets
T1 sequence (P25116 22-425): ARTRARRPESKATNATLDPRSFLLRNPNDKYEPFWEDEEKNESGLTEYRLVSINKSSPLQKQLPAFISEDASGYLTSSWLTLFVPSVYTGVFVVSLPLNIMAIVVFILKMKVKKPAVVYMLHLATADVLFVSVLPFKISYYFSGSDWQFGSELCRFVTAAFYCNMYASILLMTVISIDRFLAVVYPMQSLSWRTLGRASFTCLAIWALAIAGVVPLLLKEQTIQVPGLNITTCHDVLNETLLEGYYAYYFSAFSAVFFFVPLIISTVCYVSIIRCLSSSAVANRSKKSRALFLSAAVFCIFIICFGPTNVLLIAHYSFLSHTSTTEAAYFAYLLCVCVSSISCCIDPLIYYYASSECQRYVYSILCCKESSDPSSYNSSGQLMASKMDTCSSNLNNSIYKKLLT
Format: cell-based
Description: Platelet Aggregation: In this assay, washed human platelets are prepared by the method of Baenzinger, M. G., Meth Enzymol (1974) 31:149–155, or as described by Charo, I. F., et al., J Clin Invest (1977) 63:866–873.
Washed platelets are suspended in modified Tyrode's buffer, pH 7.4 with 2 mM magnesium and 1 mM calcium at a concentration of 10^8 platelets/ml.
About 20 μl Chromolume® reagent (Chronolog Corporation, Havertown, Pa.) is added. In addition to measuring aggregation, ATP secretion is assessed. […] Platelet ATP secretion is measured in a lumiaggregometer as luminescence signal. […] Preincubation is not necessary for testing agonists or antagonists which interact directly with the receptor.
Platelet Aggregation Assay Using Microtiter Plates: Thrombin- or agonist-mediated platelet aggregation as measured with washed platelets in 96-well microtiter plates was performed as described (Fratantoni, J. C. et al., Am J Clin Pathol (1990) 94:613–617).

| Compound | IC50 [µM] |
| --- | --- |
| C[C@H](NC(=O)[C@H](CC(N)=O)NC(=O)[C@H](CCCNC(=N)N)NC(=O)[C@H](CC1CCCCC1)NC(=O)[C@H](CC1CCCCC1)NC(=O)[C@H](Cc1ccccc1)NC(=O)CCS)C(=O)N[C@@H](CC(N)=O)C(=O)N[C@@H](CC(=O)O)C(=O)N[C@@H](CCCCN)C(N)=O [Mpr-F(Cha) (Cha)RNANDK-NH2] ([Mpa]F[Cha][Cha]RNANDK-NH2) | 75 |
| N=C(N)NCCC[C@H](NC(=O)[C@H](CC1CCCCC1)NC(=O)[C@H](CC1CCCCC1)NC(=O)[C@H](Cc1ccccc1)NC(=O)CCS)C(=O)N[C@@H](CC(N)=O)C(=O)N1CCC[C@H]1C(=O)N[C@@H](CC(N)=O)C(=O)N[C@@H](CC(=O)O)C(N)=O [Mpr-F(Cha) (Cha)RNPND-NH2] ([Mpa]F[Cha][Cha]RNPND-NH2) | 50 |
| N=C(N)NCCC[C@H](NC(=O)[C@H](CC1CCCCC1)NC(=O)[C@H](CC1CCCCC1)NC(=O)[C@H](Cc1ccccc1)NC(=O)c1ccccc1S)C(=O)N[C@@H](CCCCN)C(=O)N1CCC[C@H]1C(=O)N[C@@H](CC(N)=O)C(=O)N[C@@H](CC(=O)O)C(=O)N[C@@H](CCCCN)C(N)=O [(2-Mba)-F(Cha)(Cha)RKPNDK-NH2] (X1-F[Cha][Cha]RKPNDK-NH2) | 50 |
| N=C(N)NCCC[C@H](NC(=O)[C@H](CC1CCCCC1)NC(=O)[C@H](CC1CCCCC1)NC(=O)[C@H](Cc1ccccc1)NC(=O)CCS)C(=O)N[C@@H](CC(N)=O)C(=O)N1CCC[C@H]1C(=O)N[C@@H](CC(N)=O)C(=O)N[C@@H](CC(=O)O)C(=O)N[C@@H](CCCCN)C(=O)N[C@@H](Cc1ccc(O)cc1)C(=O)O [Mpr-F(Cha) (Cha)RNPNDKY] ([Mpa]F[Cha][Cha]RNPNDKY-OH) | 40 |
| C[C@H](NC(=O)[C@@H]1CCCN1C(=O)[C@H](CC(N)=O)NC(=O)[C@H](CCCNC(=N)N)NC(=O)[C@H](CC1CCCCC1)NC(=O)[C@H](CC1CCCCC1)NC(=O)[C@H](Cc1ccccc1)NC(=O)CCS)C(=O)N[C@@H](CC(=O)O)C(=O)N[C@@H](CCCCN)C(N)=O [Mpr-F(Cha) (Cha)RNPADK-NH2] ([Mpa]F[Cha][Cha]RNPADK-NH2) | 75 |
| C[C@H](NC(=O)[C@H](CC(=O)O)NC(=O)[C@H](CC(N)=O)NC(=O)[C@@H]1CCCN1C(=O)[C@H](CC(N)=O)NC(=O)[C@H](CCCNC(=N)N)NC(=O)[C@H](CC1CCCCC1)NC(=O)[C@H](CC1CCCCC1)NC(=O)[C@H](Cc1ccccc1)NC(=O)CCS)C(N)=O [Mpr-F(Cha) (Cha)RNPNDA-NH2] ([Mpa]F[Cha][Cha]RNPNDA-NH2) | 50 |
| CC(C)C[C@H](NC(=O)[C@H](CC(C)C)NC(=O)[C@H](Cc1ccccc1)NC(=O)C(C)(C)C)C(=O)N[C@@H](CCCNC(=N)N)C(N)=O [Pivaloyl-FLLR-NH2] (Piv-FLLR-NH2) | 1000 |
| C[C@H](NC(=O)[C@H](CC(N)=O)NC(=O)[C@@H]1CCCN1C(=O)[C@H](CC(N)=O)NC(=O)[C@H](CCCNC(=N)N)NC(=O)[C@H](CC1CCCCC1)NC(=O)[C@H](CC1CCCCC1)NC(=O)[C@H](Cc1ccccc1)NC(=O)CCS)C(=O)N[C@@H](CCCCN)C(N)=O [Mpr-F(Cha) (Cha)RNPNAK-NH2] ([Mpa]F[Cha][Cha]RNPNAK-NH2) | > 100 |
| CSCCC(=O)N[C@@H](Cc1ccccc1)C(=O)N[C@@H](CC1CCCCC1)C(=O)N[C@@H](CC1CCCCC1)C(=O)N[C@@H](CCCNC(=N)N)C(=O)N[C@@H](CCCCN)C(=O)N1CCC[C@H]1C(=O)N[C@@H](CC(N)=O)C(=O)N[C@@H](CC(=O)O)C(=O)N[C@@H](CCCCN)C(N)=O [(SMeMpr)-F(Cha)(Cha)RKPNDK-NH2] ([Mpa](Me)F[Cha][Cha]RKPNDK-NH2) | 10 |
| N=C(N)NCCC[C@H](NC(=O)[C@H](CC1CCCCC1)NC(=O)[C@H](CC1CCCCC1)NC(=O)[C@H](Cc1ccccc1)NC(=O)CCS)C(=O)N[C@@H](CC(N)=O)C(=O)N1CCC[C@H]1C(=O)N[C@@H](CC(N)=O)C(=O)N[C@@H](CC(=O)O)C(=O)N[C@@H](CCCCN)C(=O)N[C@@H](Cc1ccc(O)cc1)C(=O)N[C@@H](CCC(=O)O)C(N)=O ([Mpa]F[Cha][Cha]RNPNDKYE-NH2) | 80 |
| C[C@H](NC(=O)[C@H](CC(=O)O)NC(=O)[C@H](CC(N)=O)NC(=O)[C@@H]1CCCN1C(=O)[C@H](CCCCN)NC(=O)[C@H](CCCNC(=N)N)NC(=O)[C@H](CC1CCCCC1)NC(=O)[C@H](CC1CCCCC1)NC(=O)[C@H](Cc1ccccc1)NC(=O)CCS)C(N)=O [Mpr-F(Cha) (Cha)RKPNDA-NH2] ([Mpa]F[Cha][Cha]RKPNDA-NH2) | 50 |
| CC(C)C[C@H](NC(=O)[C@H](Cc1ccccc1)NC(=O)CCS)C(=O)N[C@@H](CC(C)C)C(=O)N[C@@H](CCCNC(=N)N)C(=O)N[C@@H](CC(N)=O)C(=O)N1CCC[C@H]1C(=O)N[C@@H](CC(N)=O)C(=O)N[C@@H](CC(=O)O)C(=O)N[C@@H](CCCCN)C(=O)O ([Mpa]FLLRNPNDK-OH) | 80 |

Each compound was assayed against T2, washed human platelets (Homo sapiens, UniProt P25116) (assay: not given). Conditions: read-out: EC50 (concentration required to elicit a 50% maximal aggregation); washed human platelets.
T2 sequence (P25116 42-425): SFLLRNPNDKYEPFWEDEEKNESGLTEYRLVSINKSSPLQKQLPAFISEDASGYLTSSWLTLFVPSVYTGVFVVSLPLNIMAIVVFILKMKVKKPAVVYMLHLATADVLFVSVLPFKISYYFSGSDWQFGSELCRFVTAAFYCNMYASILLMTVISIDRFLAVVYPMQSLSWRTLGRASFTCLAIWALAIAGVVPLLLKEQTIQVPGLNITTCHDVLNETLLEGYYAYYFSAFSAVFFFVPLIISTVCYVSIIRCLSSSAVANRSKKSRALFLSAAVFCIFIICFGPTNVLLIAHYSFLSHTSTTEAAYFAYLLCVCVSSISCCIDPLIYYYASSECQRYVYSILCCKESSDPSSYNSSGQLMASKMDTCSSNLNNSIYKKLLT

| Compound | EC50 [µM] |
| --- | --- |
| CC(C)C[C@H](NC(=O)[C@H](CC(C)C)NC(=O)[C@H](Cc1ccccc1)NC(=O)[C@@H](N)CO)C(N)=O [SFLL-NH2] (H-SFLL-NH2) | 146 |
| CC(C)C[C@H](NC(=O)[C@H](CC(C)C)NC(=O)[C@H](Cc1cccs1)NC(=O)[C@@H](N)CO)C(=O)N[C@@H](CCCNC(=N)N)C(N)=O [S(Thi)LLR-NH2] (H-S[2Thi]LLR-NH2) | 7.6 |
| SFLLRNPN | 7.6 |
| SFLAR-NH2 [SFLAR-NH2] | 146 |
| CC(C)C[C@H](NC(=O)[C@H](CC(C)C)N(C)C(=O)[C@H](Cc1ccccc1)NC(=O)[C@@H](N)CO)C(=O)N[C@@H](CCCN=C(N)N)C(N)=O [SF(N-MeLeu)LR-NH2] | > 1000 |
| SFFLRN-NH2 [SFFLRN-NH2] | 1.5 |
| CC(C)C[C@H](NC(=O)[C@H](Cc1ccccc1)NC(=O)[C@@H](N)CO)C(=O)N[C@@H](Cc1ccc2ccccc2c1)C(=O)N[C@@H](CCCNC(=N)N)C(=O)N[C@@H](CC(N)=O)C(N)=O [SFL(Nal)RN-NH2] (H-SFL[2Nal]RN-NH2) | 7.5 |
| CC(C)C[C@H](NC(=O)[C@H](CC(C)C)NC(=O)[C@H](Cc1ccccc1)NC(=O)[C@@H](N)CO)C(=O)N[C@@H](CCCN=C(N)N)C(N)=O [SFLLR-NH2] | 7.5 |
| CC(C)C[C@H](NC(=O)[C@H](CC1CCCCC1)NC(=O)[C@H](Cc1ccccc1)NC(=O)[C@@H](N)CO)C(=O)N[C@@H](CCCNC(=N)N)C(N)=O [SF(Cha)LR-NH2] (H-SF[Cha]LR-NH2) | 1.5 |

Same assay, conditions: washed human platelets

| Compound | EC50 (concentration required to elicit a 50% maximal aggregation) |
| --- | --- |
| FFLLR [FFLLR-NH2] | Inactive |
| SFLLDN [SFLLDN-NH2] | Inactive |
| SFLLRNPNDYKE | Inactive |
| SALLRNPNDKYE | Inactive |
| SF(Aib)LRN-NH2 (SF[Aib]LRN-NH2; N-terminus assumed; SMILES CC(C)C[C@H](NC(=O)C(C)(C)NC(=O)[C@H](Cc1ccccc1)NC(=O)[C@@H](N)CO)C(=O)N[C@@H](CCCNC(=N)N)C(=O)N[C@@H](CC(N)=O)C(N)=O) | Inactive |
| KFLLR [KFLLR-NH2] | Inactive |
| SLLLR [SLLLR-NH2] | Inactive |
| SFLPR [SFLPR-NH2] | Inactive |
| SF(D-Ala)LR-NH2 (SF[dA]LR-NH2; N-terminus assumed; SMILES CC(C)C[C@H](NC(=O)[C@@H](C)NC(=O)[C@H](Cc1ccccc1)NC(=O)[C@@H](N)CO)C(=O)N[C@@H](CCCNC(=N)N)C(N)=O) | Inactive |
| SF(b-Ala)LRN-NH2 (SFXLRN; beta-Ala at position 3; C-terminal amide) | Inactive |
| SFLER [SFLER-NH2] | Inactive |
| SFDLR [SFDLR-NH2] | Inactive |
| S(Phg)LLR-NH2 (S[Phg]LLR-NH2; N-terminus assumed; SMILES CC(C)C[C@H](NC(=O)[C@H](CC(C)C)NC(=O)[C@@H](NC(=O)[C@@H](N)CO)c1ccccc1)C(=O)N[C@@H](CCCNC(=N)N)C(N)=O) | Inactive |
| SFLARNPNDKYE | Inactive |
| DFLLR [DFLLR-NH2] | Inactive |
| FLLRNPNDKYEPF | Inactive |
